According to PMC10669340, “Bioactive Compounds from an Endophytic Pezicula sp. Showing Antagonistic Effects against the Ash Dieback Pathogen” (Biomolecules, 2023):
Values after ≈ are worked out from the molar mass of the structure shown. Like-named read-outs stand apart in the source and are kept apart here.

Legend:
[1] = tested on: Escherichia coli DSM 1116; assay: Antimicrobial serial dilution assay (MIC); format: cell-based; settings: n.i.: no inhibition
How it was run: (§1)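 MIC, derived from serial compound dilutions; protocol as previously described.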

[2] = tested on: Staphylococcus aureus DSM 346; assay: Antimicrobial serial dilution assay (MIC); format: cell-based
How it was run: as §1

[3] = tested on: Rhodotorula glutinis DSM 10134; assay: Antimicrobial serial dilution assay (MIC); format: cell-based
How it was run: as §1

[4] = tested on: Pichia anomala DSM 6766; assay: Antimicrobial serial dilution assay (MIC); format: cell-based
How it was run: as §1

[5] = tested on: Pseudomonas aeruginosa PA14; assay: Antimicrobial serial dilution assay (MIC); format: cell-based; settings: n.i.: no inhibition
How it was run: as §1

[6] = tested on: Mycobacterium smegmatis ATCC 700084; assay: Antimicrobial serial dilution assay (MIC); format: cell-based
How it was run: as §1

[7] = tested on: Bacillus subtilis DSM 10; assay: Antimicrobial serial dilution assay (MIC); format: cell-based
How it was run: as §1

[8] = tested on: Candida albicans DSM1665; assay: Antimicrobial serial dilution assay (MIC); format: cell-based; settings: n.i.: no inhibition
How it was run: as §1

[9] = tested on: Chromobacterium violaceum DSM 30191; assay: Antimicrobial serial dilution assay (MIC); format: cell-based; settings: n.i.: no inhibition
How it was run: as §1

[10] = tested on: Schizosaccharomyces pombe DSM 70572; assay: Antimicrobial serial dilution assay (MIC); format: cell-based
How it was run: as §1

[11] = tested on: Acinetobacter baumannii DSM 30008; assay: Antimicrobial serial dilution assay (MIC); format: cell-based; settings: n.i.: no inhibition
How it was run: as §1

[12] = tested on: Mucor hiemalis DSM 2656; assay: Antimicrobial serial dilution assay (MIC); format: cell-based
How it was run: as §1

[13] = MTT cytotoxicity assay; format: cell-based; settings: read-out: Cytotoxic activity (IC50)
Description: (§2) The in vitro cytotoxicity assay was performed using the MTT (3-(4,5-dimethylthiayol-2-yl)-2,5-diphenyltetrazolium bromide) test in 96-well microtiter plates as previously described.

[14] = tested on: panel of bacteria and fungi; assay: Antimicrobial serial dilution assay, whole panel (summary statements); format: cell-based
Description: The antimicrobial activity (minimum inhibitory concentration, MIC) of the compounds was determined against Acinetobacter baumannii DSM 30008, Bacillus subtilis DSM 10, Chromobacterium violaceum DSM 30191, Escherichia coli DSM 1116, Mycobacterium smegmatis ATCC 700084, Pseudomonas aeruginosa PA14, Staphylococcus aureus DSM 346, Candida albicans DSM1665, Mucor hiemalis DSM 2656, Pichia anomala DSM 6766, Rhodotorula glutinis DSM 10134 and Schizosaccharomyces pombe DSM 70572 in a serial dilution assay as previously described.

[15] = tested on: panel of mammalian cell lines; assay: MTT cytotoxicity assay, panel (summary statements); format: cell-based; settings: 4–6 only KB3.1 and L929
Description: as §2

[16] = tested on: H. fraxineus (isolate RH02-T6-B4-2); assay: Agar disc diffusion assay; format: cell-based, Hymenoscyphus fraxineus; settings: for Antifungal activity, inhibition diameter: 6 mm disc, 7 days, 21 °C
Description: The antifungal activity of the isolated compounds against H. fraxineus was assessed by the disc diffusion method using 9 cm diameter petri dishes as previously described […] Three sterile filter paper discs per plate were gently placed on dried potato–dextrose agar. The fungicide nystatin was applied as the positive control (20 and 50 µg/paper disc) and methanol as the negative control (10 µL/paper disc). The test plates were incubated at 21 °C for 7 days, the inhibition diameters were measured, and the activity was evaluated compared to nystatin.
Figure S44: Agar disc (6 mm diam.) diffusion assay of compound CJ-17,572 (1) against H. fraxineus RH02-T6-B4-2, grown in 9-cm petri dishes on agar-based PD
medium with H. fraxineus, N - positive control nystatin, M - negative control methanol, CJ – 1.
Table S1. Antifungal activity of the compounds 1-6. n.i.: no inhibition, n.t.: not tested.
Compounds Amount ( µg/paper disc)
Peziculastatin n.t. n.i. 8 mm
Mycorrhizin A 19 mm 31 mm n.t.
Cryptosporioptide A n.t. n.i. n.i.
Cryptosporioptide B n.t. n.i. 8 mm
Cryptosporioptide C n.t. n.i. n.i.
Nystatin 21 mm 24 mm n.t.

[17] = tested on: Fraxineus excelsior leaves; assay: Phytotoxicity leaf puncture assay; settings: 1 mg/mL in MeOH, 20 µL on punctured leaves, evaluated after 3 days
Description: The phytotoxicity of the compounds 1, 3 and 4 was assessed using the leaf puncture assay as described previously. The other compounds could not be evaluated because of the limited quantity.
For this assay, similar leaves of the same Fraxineus excelsior plant were chosen onto which the compounds were applied. The pure compounds were dissolved at 1 mg/mL in MeOH. Then, 20 µL of test samples were applied to the adaxial sides of leaves that had previously been needle punctured. A total of 20 µL of MeOH in distilled water (4%) was applied on the leaves as the negative control and 1 mg/mL macrocidin A [23] as the positive control. Each treatment was repeated three times and then the leaves were placed on moistened paper filters in petri dishes (diameter 9 cm) to prevent the droplets from drying. The experiment was run in duplicate. Leaves were evaluated for the symptoms after 3 days.

[18] = tested on: Candida albicans DSM 11225 biofilm; assay: Biofilm assay, inhibition of biofilm formation; format: cell-based; settings: (/) no activity
Description: The stock of fungal pathogen Candida albicans DSM 11225 from −20 °C was cultured in 25 mL YPD (Yeast extract Peptone Dextrose; dextrose 20 g/L, peptone 20 g/L, yeast extract 10 g/L) medium in a 250 mL flask at 30 °C with shaking 100 rpm for 18 h. Turbidity of the broth was measured and diluted to match the turbidity of a 0.05 McFarland standard in RPMI 1640 medium (Gibco, New York, NY, USA, Thermo Fisher Scientific). Afterwards, 150 μL of the fungal dispersion was added into each well of a 96-well microtiter plate (Falcon no. 351172, Thermo Fisher Scientific) and further incubated for 90 min. The supernatant was removed, and the plate was washed once by using PBS buffer. Compounds were serially diluted in 150 μL in fresh medium to concentrations of 250–2 μg/mL. Staining and analysis were conducted as previously described. Methanol (2.5%) and farnesol (250–2 μg/mL) were used as solvent and positive controls. Error bars indicate SD with duplicates in two biological repeats.

[19] = tested on: Staphylococcus aureus DSM 1104 preformed biofilm; assay: Biofilm assay, dispersal of preformed biofilm; format: cell-based; design: Antibiofilm activity, preformed S. aureus: unit not given here; settings: (/) no activity
Description: Staphylococcus aureus DSM 1104 from −20 °C stock was cultured in 25 mL CASO (Casein–Peptone Soymeal–Peptone; peptone from casein 15 g/L, peptone from soy flour 5 g/L, NaCl 5 g/L, pH 7.3) medium at 37 °C at 100 rpm in 250 mL for 20 h. The precultured suspension of S. aureus was adjusted so that its OD600 matched the turbidity of a 0.001 McFarland standard. S. aureus was incubated in 96-well tissue microtiter plates (TPP tissue culture ref.no 92196, Switzerland) for 24 h at 150 rpm in […] CASO medium with 4% glucose broth. The supernatant was removed from the wells and 150 μL of the respective media (fresh) was added to the wells, together with the serially diluted compounds (250–2 μg/mL). The plates were incubated for a further 24 h at 37 °C. Staining of the biofilms was carried out as described previously. Standard deviation (SD) of two repeats with duplicates each were 10% or less. Methanol (2.5%) and microporenic acid A (250–2 μg/mL) were used as solvent and positive controls. Error bars indicate SD with duplicates in two biological repeats.

[20] = 50 µg/paper disc, n.i.: no inhibition

In the case of `C[C@H]1CC[C@H]2[C@@H](C=C[C@H](C)[C@]2(C)C(=O)C2=C(O)[C@H]([C@@H](C)O)N(C)C2=O)C1` [Compound 1, CJ-17,572], the “Minimum inhibitory concentration (MIC)” value [1] is reported as “n.i”, the MIC ([2]; Staphylococcus aureus, DSM346, read-out: Minimum inhibitory concentration (MIC)) is reported as 8.3 µg/mL (≈ 23 µM) and the MIC ([3]; Rhodotorula glutinis, DSM10134, read-out: Minimum inhibitory concentration (MIC)) is reported as 66.6 µg/mL (≈ 184 µM). For the same molecule, the MIC ([4]; Hansenula anomala, DSM6766, read-out: Minimum inhibitory concentration (MIC)) was 33.3 µg/mL (≈ 92.1 µM), the “Minimum inhibitory concentration (MIC)” value [5] was “n.i” and the MIC ([6]; Mycolicibacterium smegmatis, ATCC700084, read-out: Minimum inhibitory concentration (MIC)) was 66.6 µg/mL (≈ 184 µM). The MIC ([7]; Bacillus subtilis, DSM10, read-out: Minimum inhibitory concentration (MIC)) was 8.3 µg/mL (≈ 23 µM), the “Minimum inhibitory concentration (MIC)” value [8] was “n.i” and the “Minimum inhibitory concentration (MIC)” value [9] was “n.i”. For the same molecule, the MIC ([10]; Schizosaccharomyces pombe, DSM70572, read-out: Minimum inhibitory concentration (MIC)) was 33.3 µg/mL (≈ 92.1 µM), the “Minimum inhibitory concentration (MIC)” value [11] was “n.i” and the MIC ([12]; Mucor hiemalis, DSM2656, read-out: Minimum inhibitory concentration (MIC)) was 4.2 µg/mL (≈ 11.6 µM). For the same molecule, the IC50 ([13]; human, A431) was 23 µM, the IC50 ([13]; human, A549) was 4.4 µM and the IC50 ([13]; human, KB3.1, n.c.: no cytotoxicity) was 2.5 µM. For the same molecule, the IC50 ([13]; human, MCF-7) was 2.7 µM, the IC50 ([13]; human, PC-3) was 3.3 µM and the IC50 ([13]; human, SKOV-3) was 3.3 µM. The IC50 ([13]; mouse, L929, n.c.: no cytotoxicity) was 5 µM, the “antimicrobial activity against the tested microorganisms (in words)” value [14] was “moderate to weak antifungal activity” and the “cytotoxicity against the tested cell lines (in words)” value [15] was “active against all the tested cell lines”. For the same molecule, the “Antifungal activity, inhibition diameter” value ([16]; 20 µg/paper disc) was 9 mm, the “inhibitory effects against H. fraxineus (in words)” value ([16]; 50 µg (1) and 20 µg (3) test substance per paper disc) was “strong inhibitory effects” and the “Antifungal activity, inhibition diameter” value [16, 20] was 11 mm. The “phytotoxic activity, leaf puncture assay” value [17] was “brownish lesions”.
With `CC12Oc3ccc(-c4ccc5c(c4O)C(=O)C4=C(O)C6OC6(C)C(OC(=O)CC(=O)O)C4(C)O5)c(O)c3C(=O)C1=C(O)C1OC1(C)C2OC(=O)CC(=O)O` (centres unmarked) [Compound 4, Cryptosporioptide A] the “Minimum inhibitory concentration (MIC)” value [1] was “n.i”, the “Minimum inhibitory concentration (MIC)” value ([2]; Staphylococcus aureus DSM 346, n.i.: no inhibition) was “n.i” and the “Minimum inhibitory concentration (MIC)” value ([3]; Rhodotorula glutinis DSM 10134, n.i.: no inhibition) was “n.i”. The “Minimum inhibitory concentration (MIC)” value ([4]; Pichia anomala DSM 6766, n.i.: no inhibition) was “n.i”, the “Minimum inhibitory concentration (MIC)” value [5] was “n.i” and the “Minimum inhibitory concentration (MIC)” value ([6]; Mycobacterium smegmatis ATCC 700084, n.i.: no inhibition) was “n.i”. For the same molecule, the “Minimum inhibitory concentration (MIC)” value ([7]; Bacillus subtilis DSM 10, n.i.: no inhibition) was “n.i”, the “Minimum inhibitory concentration (MIC)” value [8] was “n.i” and the “Minimum inhibitory concentration (MIC)” value [9] was “n.i”. The “Minimum inhibitory concentration (MIC)” value ([10]; Schizosaccharomyces pombe DSM 70572, n.i.: no inhibition) was “n.i”, the “Minimum inhibitory concentration (MIC)” value [11] was “n.i” and the “Minimum inhibitory concentration (MIC)” value ([12]; Mucor hiemalis DSM 2656, n.i.: no inhibition) was “n.i”. The “Antibiofilm activity, C. albicans” value ([18]; 31.3 µg/mL) was 39, the “Antibiofilm activity, C. albicans” value ([18]; 62.5 µg/mL) was 71 and the “Antibiofilm activity, C. albicans” value ([18]; 125 µg/mL) was 71. For the same molecule, the “Antibiofilm activity, C. albicans” value ([18]; 250 µg/mL) was 81, the “Antibiofilm activity, preformed S. aureus” value ([19]; 62.5 µg/mL) was 70 and the “Antibiofilm activity, preformed S. aureus” value ([19]; 125 µg/mL) was 73. For the same molecule, the “Antibiofilm activity, preformed S. aureus” value ([19]; 250 µg/mL) was 80, the “Antifungal activity, inhibition diameter” value [16, 20] was “n.i” and the “Antifungal activity, inhibition diameter” value ([16]; 100 µg/paper disc, n.i.: no inhibition) was “n.i”. For the same molecule, the “phytotoxic activity, leaf puncture assay” value [17] was “brownish lesions”.
